The structures appear in SMILES notation. Where only a bound is given, the exact number is not on record here.

In data set [1] the test system is vaccinia and herpes simplex. Conditions: in vitro, literature; cited from earlier work.
For data set [2], the system named is Human cytomegalovirus (HCMV). Description: HCMV plaque reduction assay in MRC5 or Detroit 532 cells. Type of data set: cell-based. As to the method: (§1) Human cytomegalovirus (HCMV) is assayed in monolayers of either MRC5 cells (human embryonic lung) or Detroit 532 cells (human foreskin fibroblasts) in multiwell trays. Activity of compounds is determined in the plaque reduction assay, in which a cell monolayer is infected with a suspension of HCMV, and then overlaid with nutrient agarose in the form of a gel to ensure that there is no spread of virus throughout the culture. A range of concentrations of compound of known molarity was incorporated in the nutrient agarose overlay. Plaque numbers of each concentration are expressed as percentage of the control and dose-response curve is drawn. From this curve the 50% inhibitory concentration (IC50) is estimated.
In general terms: In a plaque reduction assay, fewer plaques than in the control indicate reduced infectivity or spread.

Data set [3] is described as follows: Cell growth inhibition assay (cell toxicity, tetrazolium dye uptake). Format: cell-based. Particulars: monkey; Vero cells; 50% inhibition of cell viability at 96 hours; read-out: CCID50 at 96 hr. As to the method: Cell toxicity is assessed in a cell growth inhibition assay. Subconfluent cultures of Vero cells grown on 96-well microtiter dishes are exposed to different dilutions of drug, and cell viability determined daily on replicate cultures using uptake of a tetrazolium dye (MIT). The concentration required for a 50% inhibition of cell viability at 96 hours is termed CCID50.

Data set [4] relates to Varicella zoster virus (VZV). As to the kind of experiment: VZV plaque reduction assay in MRC5 cells (without agarose overlay). Format: cell-based. As to the method: as §1, with “estimated. Varicella zoster virus (VZV) is assayed in MRC5 cells by a similar method of that of MCMV with the omission of the agarose overlay.” for “estimated.”

Consider `C#Cc1cn([C@H]2C[C@H](O)[C@@H](CO)O2)c(=O)[nH]c1=O` [2'-deoxy-5-ethynyluridine], for which the “antiviral activity against vaccinia and herpes simplex (in words)” value in data set [1] is listed as “did not demonstrate any effect of use in human medicinal chemotherapy”.
`CC#Cc1cn([C@H]2C[C@H](O)[C@@H](CO)O2)c(=O)[nH]c1=O` [Example 1, 2'-Deoxy-5-propynyluridine]: the IC50 is greater than 16 µM in data set [2] (Human betaherpesvirus 5, MRC5, MRC5 or Detroit 532 cells, plaque reduction) and 1 µM in data set [4] (Human alphaherpesvirus 3, MRC5, MRC5 cells, plaque reduction). Besides, the CC50 at 96 h in data set [3] was greater than 500 µM. Besides, the “activity against VZV (in words)” value in data set [4] (qualitative statement) is “potent anti-VZV activity”.
As for `C#Cc1cn([C@H]2C[C@H](OC(C)=O)[C@@H](COC(C)=O)O2)c(=O)nc1N` [Example 2, 2'-Deoxy-3',5'-di-O-acetyl-5-ethynylcytidine], the CC50 at 96 h in data set [3] is greater than 500 µM.
`C#Cc1cn([C@H]2C[C@H](O)[C@@H](CO)O2)c(=O)nc1N` [Example 3, 2'-Deoxy-5-ethynylcytidine]: in data set [2] (qualitative statement), the “activity against CMV (in words)” value is reported as “high activity against CMV”.

As a reminder, the IC50 is the concentration at which inhibition is half-maximal. A low value points to greater potency in that assay.

(Values after patent US5028596A, “1-(β-D-arabinofuranosyl)-5-propynyluracil for treatment of VZV infections” (Burroughs Wellcome Co., priority 1987, dated 1991).)
